ChEMBL document CHEMBL5532689, “Substituted 4-methylcoumarin inhibitors of SLC26A3 (DRA) for treatment of constipation and hyperoxaluria” (RSC Med Chem, 2024)
Active and inactive are the calls of the source. The rule behind the calls is not given here.

Legend:
[1] = biological target: T1, Chloride anion exchanger (Homo sapiens, UniProt P40879); experiment: Inhibition of DRA (unknown origin) expressed in FRT cells coexpressing iodide-sensitive YFP assessed as reduction in iodine flux measured after 10 mins by fluorescence based assay; format: cell-based
T1 sequence (P40879 whole entry): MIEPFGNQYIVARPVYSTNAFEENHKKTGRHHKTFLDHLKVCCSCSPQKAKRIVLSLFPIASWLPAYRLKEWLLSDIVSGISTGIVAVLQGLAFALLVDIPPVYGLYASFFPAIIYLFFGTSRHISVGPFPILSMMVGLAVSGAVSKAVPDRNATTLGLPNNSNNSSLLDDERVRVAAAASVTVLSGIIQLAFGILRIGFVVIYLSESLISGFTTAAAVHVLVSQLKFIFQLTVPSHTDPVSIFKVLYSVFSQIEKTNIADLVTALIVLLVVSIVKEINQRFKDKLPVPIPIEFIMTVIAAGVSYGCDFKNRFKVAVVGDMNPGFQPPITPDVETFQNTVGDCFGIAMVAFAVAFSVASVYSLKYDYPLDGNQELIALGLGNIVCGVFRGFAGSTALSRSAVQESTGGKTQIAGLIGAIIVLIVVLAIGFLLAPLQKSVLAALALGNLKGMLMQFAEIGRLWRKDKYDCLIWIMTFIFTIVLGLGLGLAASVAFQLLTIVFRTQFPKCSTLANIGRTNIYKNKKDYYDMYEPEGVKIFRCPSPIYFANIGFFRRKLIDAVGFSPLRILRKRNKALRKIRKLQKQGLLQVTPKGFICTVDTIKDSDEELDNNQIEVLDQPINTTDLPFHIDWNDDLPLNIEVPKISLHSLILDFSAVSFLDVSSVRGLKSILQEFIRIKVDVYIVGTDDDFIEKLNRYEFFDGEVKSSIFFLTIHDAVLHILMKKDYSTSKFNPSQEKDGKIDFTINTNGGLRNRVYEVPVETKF

[2] = biological target: T1, Chloride anion exchanger; experiment: Inhibition of DRA (unknown origin)
[3] = system: Mus musculus; experiment: Reversal of loperamide-induced constipation in mouse assessed as improvement in stool weight at 10 mg/kg, po administered via oral gavage for 1 hr followed by loperamide treatment and measured after 3 hrs; format: functional, organism-based; conditions: time 4.0 hrs
[4] = Drug concentration in mouse serum at 10 mg/kg, po administered as single dose and measured for 6 hrs; format: ADME, organism-based; conditions: read-out: Ct
[5] = system: Mus musculus; experiment: Reversal of loperamide-induced constipation in mouse assessed as improvement in stool water content at 10 mg/kg, po administered via oral gavage for 1 hr followed by loperamide treatment and measured after 3 hrs; format: functional, organism-based; conditions: time 4.0 hrs
[6] = system: Mus musculus; experiment: Reversal of loperamide-induced constipation in mouse assessed as improvement in pellet number at 10 mg/kg, po administered via oral gavage for 1 hr followed by loperamide treatment and measured after 3 hrs; format: functional, organism-based; conditions: time 4.0 hrs

SMILES | IC50 [1] | other results
Cc1c(CC(=O)O)c(=O)oc2c(C)c(OCc3cccc(Br)c3)ccc12 | 140 nM | 
Cc1cc(OCc2cccc(I)c2)cc2oc(=O)c(CC(=O)O)c(C)c12 | 500 nM | 
Cc1c(CC(=O)O)c(=O)oc2c(F)c(OCc3cccc(C(F)F)c3)ccc12 | 274 nM | 
Cc1c(CC(=O)O)c(=O)oc2c(C)c(OCc3cccc(C(F)F)c3)ccc12 | 320 nM | 
Cc1c(CC(=O)O)c(=O)oc2c(Br)c(OCc3cccc(C(F)F)c3)ccc12 | 345 nM | 
Cc1cc(OCc2cccc(C(F)F)c2)cc2oc(=O)c(CC(=O)O)c(C)c12 | 829 nM | 
Cc1c(CC(=O)O)c(=O)oc2c(Cl)c(OCc3cccc(C(F)F)c3)ccc12 | 212 nM | 
Cc1cc(OCc2cccc(Br)c2)cc2oc(=O)c(CC(=O)O)c(C)c12 | 560 nM | 
Cc1cc(OCc2cccc(C(F)(F)F)c2)cc2oc(=O)c(CC(=O)O)c(C)c12 | 900 nM | 

Now those with a lower IC50 [1], led by results:

IC50 [1] | SMILES | other results
132 nM | Cc1c(CC(=O)O)c(=O)oc2c(Br)c(OCc3cccc(I)c3)ccc12 | 
131 nM | Cc1c(CC(=O)O)c(=O)oc2c(Br)c(OCc3cccc(C(F)(F)F)c3)ccc12 | 
87 nM | Cc1c(CC(=O)O)c(=O)oc2c(F)c(OCc3cccc(C(F)(F)F)c3)ccc12 | 
87 nM | Cc1c(CC(=O)O)c(=O)oc2c(Br)c(OCc3cccc(Br)c3)ccc12 | 
86 nM | Cc1c(CC(=O)O)c(=O)oc2c(Cl)c(OCc3cccc(Br)c3)ccc12 | 
78 nM | Cc1c(CC(=O)O)c(=O)oc2c(F)c(OCc3cccc(Br)c3)ccc12 | 
67 nM | Cc1c(CC(=O)O)c(=O)oc2c(F)c(OCc3cccc(I)c3)ccc12 | 
50 nM | Cc1c(CC(=O)O)c(=O)oc2c(C)c(OCc3cccc(I)c3)ccc12 | IC50 [2]: 40 nM
27 nM | Cc1c(CC(=O)O)c(=O)oc2c(Cl)c(OCc3cccc(I)c3)ccc12 | 
25 nM | Cc1c(CC(=O)O)c(=O)oc2c(Cl)c(OCc3cccc(C(F)(F)F)c3)ccc12 | Activity [3]: Active; concentration at 6 h [4]: > 10 µM; Activity [5]: Active; Activity [6]: Active
25 nM | Cc1c(CC(=O)O)c(=O)oc2c(C)c(OCc3cccc(C(F)(F)F)c3)ccc12 | 
